Measured values published in patent US20210395226A1, “SUBSTITUTED ARYL COMPOUND AND PREPARATION METHOD THEREFOR AND USE THEREOF” (SICHUAN KELUN-BIOTECH BIOPHARMACEUTICAL CO., LTD., priority 2018, published 2021).
Read-outs that look alike come from different tables or passages of the source.

Columns and labels:
[1] = target: T1, Adenosine A2a receptor (human) membrane (Homo sapiens, UniProt P29274); assay: Determination of competitive inhibition constant (Ki) for adenosine A2a receptor, [3H]-CGS-21680 radioligand; type: binding; settings: for Ki(A1)/Ki(A2a): selectivity ratio A1 over A2a
T1 construct: purchased PerkinElmer RBHA2AM400UA
T1 sequence (P29274 whole entry): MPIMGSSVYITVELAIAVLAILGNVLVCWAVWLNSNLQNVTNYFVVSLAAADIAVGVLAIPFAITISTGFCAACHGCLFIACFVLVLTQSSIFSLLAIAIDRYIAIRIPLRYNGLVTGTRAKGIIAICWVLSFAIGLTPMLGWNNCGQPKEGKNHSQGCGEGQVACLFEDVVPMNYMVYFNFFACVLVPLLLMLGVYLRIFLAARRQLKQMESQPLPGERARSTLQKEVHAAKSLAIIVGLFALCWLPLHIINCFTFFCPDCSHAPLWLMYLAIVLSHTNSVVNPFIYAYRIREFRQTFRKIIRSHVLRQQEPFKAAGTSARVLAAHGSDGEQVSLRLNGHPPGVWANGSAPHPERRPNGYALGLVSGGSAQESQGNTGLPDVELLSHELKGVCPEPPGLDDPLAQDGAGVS
Procedure: (§1) Test Example 1: Determination of Competitive Inhibition Constant (Ki) for Adenosine A1 and A2a Receptors
Adenosine A2a receptor (human) membrane (PerkinElmer, RBHA2AM400UA),
assay buffer for A2a (50 mM Tris-HCl, 10 mM MgCl2, 1 mM EDTA, pH7.4), used to dilute adenosine A2a receptor (human) membrane (human origin) and [^3H]-CGS-21680; and
wash buffer for A2a (50 mM Tris-HCl, 154 mM NaCl, pH7.4).
(§2) Adenosine A1 receptor membrane was diluted to 0.025 μg/μl with assay buffer for A1, and Adenosine A2a receptor membrane was diluted to 0.05 μg/μl with assay buffer for A2a, so as to obtain Adenosine A1 receptor membrane dilution and Adenosine A2a receptor membrane dilution.
(§3) The compound to be tested and CGS-15943 were diluted with DMSO, and 1 W of the compound to be tested, high value control (0.5% DMSO), low value control (1000 nM CGS-15943) were added to a 96-well plate, and 100 W of Adenosine A1 receptor membrane dilution (containing 2.5 μg of membrane) was added to each well of the 96-well plate to obtain A1 detection plate; following the same steps, 100 W of Adenosine A2a receptor membrane dilution (containing 5.0 μg membrane) was added to each well of the 96-well plate to obtain A2a detection plate.
(§4) To the A1 detection plate, 100 μl of radioisotope-labeled ligand [^3H]-DPCPX (diluted with assay buffer for A1, working concentration of which was 1.0 nM) was added; and to the A2a detection plate, 100 μl of radioisotope-labeled ligand [^3H]-CGS-21680 (diluted with assay buffer for A2a, working concentration of which was 6.0 nM) was added. The A1 and A2a detection plates were sealed with tape, and incubated at room temperature for 1 h and 2 h, respectively.
(§5) Unifilter-96 GF/C filter plates were prepared, 50 μl of 0.3% PEI was added to each well of the Unifilter-96 GF/C filter plates, and the resulting filter plates were incubated at room temperature for not less than 0.5 h.
(§6) After the incubation was completed, the reaction solution was transferred from the A1 detection plate and the A2a detection plate to two Unifilter-96 GF/C filter plates, and washed with pre-cooled wash buffer for A1 and wash buffer for A2a, and then the filter plates were dried, sealed at bottom, then 50 W of Microscint 20 fluid scintillation cocktail was added, and then the filter plates were sealed at top, and counted by MicroBeta2 Reader.
(§7) Inhibition rate %=100−(signal value of test well−signal average value of low value control)/(signal average value of high value control−signal average value of low value control)*100.
(§8) EXCEL XLfit was used to fit IC50.
(§9) The calculation formula for competitive inhibition constant (Ki) was: Ki=IC50/(1+concentration of isotope-labeled ligand/Kd), wherein Kd was the dissociation constant of the isotope-labeled ligand.

[2] = target: T2, Adenosine A1 receptor (human) membrane (Homo sapiens, UniProt P30542); assay: Determination of competitive inhibition constant (Ki) for adenosine A1 receptor, [3H]-DPCPX radioligand; type: binding; settings: 1.0 nM [3H]-DPCPX
T2 construct: purchased PerkinElmer ES-010-M400UA
T2 sequence (P30542 1-326): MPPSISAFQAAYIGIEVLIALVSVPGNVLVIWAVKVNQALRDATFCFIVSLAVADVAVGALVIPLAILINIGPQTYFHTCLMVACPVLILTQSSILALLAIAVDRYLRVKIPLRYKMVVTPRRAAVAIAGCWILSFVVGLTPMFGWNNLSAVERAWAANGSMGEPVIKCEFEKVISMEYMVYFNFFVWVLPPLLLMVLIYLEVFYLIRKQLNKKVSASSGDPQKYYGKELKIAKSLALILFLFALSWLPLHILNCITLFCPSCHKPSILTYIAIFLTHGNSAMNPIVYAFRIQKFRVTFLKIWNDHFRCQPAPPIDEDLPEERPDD
Procedure: as §1
[^3H]-DPCPX (PerkinElmer, NET974250UC),
Adenosine A1 receptor (human) membrane (PerkinElmer, ES-010-M400UA),
assay buffer for A1 (25 mM HEPES, 5 mM MgCl2, 1 mM CaCl2, 100 mM NaCl, pH7.4), used to dilute adenosine A1 receptor (human) membrane and [^3H]-DPCPX;
wash buffer for A1 (25 mM HEPES, 5 mM MgCl2, 1 mM CaCl2, 100 mM NaCl, pH7.4);
as §2, §3, §4, §5, §6, §7, §8, §9

[3] = human A2a receptor membrane, 6.0 nM [3H]-CGS-21680, read-out: Ki(A2a)

| Ki [1, 3] [nM] | Ki(A1)/Ki(A2a) [1] | Ki [2] [nM] | Structure (SMILES) | Ki [1] [nM] |
| --- | --- | --- | --- | --- |
| 9.8 | 134.5 | 1320 | COC1CCN(C(=O)Nc2ncc(-c3ccc4ncnc(C)c4c3)c(-c3ccc(F)cc3)n2)CC1 [Compound 13, N-(4-(4-fluorophenyl)-5-(4-methylquinazolin-6-yl)pyrimidin-2-yl)-4-methoxypiperidine-1-carboxamide] |  |
| 18.9 | 162.5 | 3070 | Cc1cc(-c2cnc(NC(=O)N3CCC(C#N)CC3)nc2-c2ccc(F)cc2)cc(Cl)n1 [Compound 18, N-(5-(2-chloro-6-methylpyridin-4-yl)-4-(4-fluorophenyl)pyrimidin-2-yl)-4-cyanopiperidine-1-carboxamide] |  |
| 7.3 | 639.1 | 4670 | Cc1cc(Cl)cc(-c2cnc(NC(=O)N3CCC(N4CCCCC4)CC3)nc2-c2ccc(F)cc2)c1 [Compound 21, N-(5-(3-chloro-5-methylphenyl)-4-(4-fluorophenyl)pyrimidin-2-yl)-[1,4′-dipiperidine]-1′-carboxamide] |  |
| 6.6 | 240.7 | 1590 | Cc1cc(Cl)cc(-c2cnc(NC(=O)N3CCC(N4CCCCC4)CC3)nc2-c2ccc(C)o2)c1 [Compound 22, N-(5-(3-chloro-5-methylphenyl)-4-(5-methylfuran-2-yl)pyrimidin-2-yl)-[1,4′-bipiperidine]-1′-carboxamide] |  |
| 9.9 | 403.8 | 4000 | Cc1cc(-c2nnc(NC(=O)N3CCC(N4CCCCC4)CC3)nc2-c2ccc(C)o2)cc(Cl)n1 [Compound 26, N-(6-(2-chloro-6-methylpyridin-4-yl)-5-(5-methylfuran-2-yl)-1,2,4-triazin-3-yl)-[1,4′-bipiperidine]-1′-carboxamide] |  |
| 4 | 105.5 | 422 | Cc1ccc(-c2nc(NC(=O)N3CCC(N4CCCCC4)CC3)nnc2-c2ccc3ncnc(C)c3c2)o1 [Compound 27, N-(5-(5-methylfuran-2-yl)-6-(4-methylquinazolin-6-yl)-1,2,4-triazin-3-yl)-[1,4′-bipiperidine]-1′-carboxamide] |  |
| 9 | 197.5 | 1780 | Cc1cc(Cl)cc(-c2nnc(NC(=O)N3CCC(N4CCCCC4)CC3)nc2-c2ccc(C)o2)c1 [Compound 28, N-(6-(3-chloro-5-methylphenyl)-5-(5-methylfuran-2-yl)-1,2,4-triazin-3-yl)-[1,4′-bipiperidine]-1′-carboxamide] |  |

Further lines, the molecule ahead of its results:

| Structure (SMILES) | Ki [1, 3] [nM] | Ki(A1)/Ki(A2a) [1] | Ki [2] [nM] | Ki [1] [nM] |
| --- | --- | --- | --- | --- |
| Cc1ncnc2ccc(-c3ccc(N)nc3-c3ccc(F)cc3)cc12 [Compound 1, 6-(4-fluorophenyl)-5-(4-methylquinazolin-6-yl)pyridin-2-amine] | 9.6 | 339.0 | 3250 |  |
| Cc1ncnc2ccc(-c3cc(F)c(N)nc3-c3ccc(F)cc3)cc12 [Compound 2, 3-fluoro-6-(4-fluorophenyl)-5-(4-methylquinazolin-6-yl)pyridin-2-amine] | 2.7 | 258.6 | 698 |  |
| Cc1ncnc2ccc(-c3cnc(N)nc3-c3ccc(F)cc3)cc12 [Compound 3, 4-(4-fluorophenyl)-5-(4-methylquinazolin-6-yl)pyrimidin-2-amine] | 1.6 | 111.3 | 178 |  |
| Cc1ncnc2ccc(-c3cc(F)c(NC(=O)N(C)Cc4ccccn4)nc3-c3ccc(F)cc3)cc12 [Compound 4, 3-(3-fluoro-6-(4-fluorophenyl)-5-(4-methylquinazolin-6-yl)pyridin-2-yl)-1-methyl-1-(pyridin-2-ylmethyl)urea] |  | 417.3 | 5680 | 13.6 |
| CNC(=O)Nc1ncc(-c2ccc3ncnc(C)c3c2)c(-c2ccc(F)cc2)n1 [Compound 5, 1-(4-(4-fluorophenyl)-5-(4-methylquinazolin-6-yl)pyrimidin-2-yl)-3-methylurea] | 15.6 | >507.5 | > 7920 |  |
| Cc1ncnc2ccc(-c3cnc(NC(=O)NCc4ccccn4)nc3-c3ccc(F)cc3)cc12 [Compound 6, 1-(4-(4-fluorophenyl)-5-(4-methylquinazolin-6-yl)pyrimidin-2-yl)-3-(pyridine-2-methyl)urea] | 14.3 | >553.6 | > 7920 |  |
| Cc1ncnc2ccc(-c3cnc(NC(=O)N(C)Cc4ccccn4)nc3-c3ccc(F)cc3)cc12 [Compound 9, 3-(4-(4-fluorophenyl)-5-(4-methylquinazolin-6-yl)pyrimidin-2-yl)-1-methyl-1-(pyridine-2-methyl)urea] | 3.7 | 331.8 | 1230 |  |
| Cc1ncnc2ccc(-c3cnc(NC(=O)N4CCC(C#N)CC4)nc3-c3ccc(F)cc3)cc12 [Compound 10, 4-cyano-N-(4-(4-fluorophenyl)-5-(4-methylquinazolin-6-yl)pyrimidin-2-yl) piperidine-1-carboxamide] | 4.7 | 146.8 | 690 |  |
| Cc1ncnc2ccc(-c3cnc(NC(=O)N(C)c4ccccc4)nc3-c3ccc(F)cc3)cc12 [Compound 12, 3-(4-(4-fluorophenyl)-5-(4-methylquinazolin-6-yl)pyrimidin-2-yl)-1-methyl-1-phenylurea] | 8.8 | 137.6 | 1210 |  |
| Cc1cc(-c2cnc(NC(=O)N(C)Cc3ccccn3)nc2-c2ccc(F)cc2)cc(Cl)n1 [Compound 14, 3-(5-(2-chloro-6-methylpyridin-4-yl)-4-(4-fluorophenyl)pyrimidin-2-yl)-1-methyl-1-(pyridin-2-ylmethyl)urea] | 8.1 | 656.1 | 5310 |  |
| CN(Cc1ccccn1)C(=O)Nc1ncc(-c2cc(Cl)nc(C(F)(F)F)c2)c(-c2ccc(F)cc2)n1 [Compound 16, 3-(5-(2-chloro-6-(trifluoromethyl)pyridin-4-yl)-4-(4-fluorophenyl)pyrimidin-2-yl)-1-methyl-1-(pyridin-2-ylmethyl)urea] | 21.5 | 361.6 | 7770 |  |
| Cc1cc(-c2cnc(N)nc2-c2ccc(F)cc2)cc(Cl)n1 [Compound 17, 5-(2-chloro-6-methylpyridin-4-yl)-4-(4-fluorophenyl)pyrimidin-2-amine] | 4.6 | 44.5 | 205 |  |
| Cc1ncnc2ccc(-c3nnc(NC(=O)N(C)Cc4ccccn4)nc3-c3ccc(F)cc3)cc12 [Compound 24, 3-(5-(4-fluorophenyl)-6-(4-methylquinazolin-6-yl)-1,2,4-triazolin-3-yl)-1-methyl-1-(pyridine-2-methyl)urea] |  | 139.1 | 3730 | 26.8 |
| Cc1ccc(-c2nc(NC(=O)N(C)Cc3ccccn3)nnc2-c2ccc3ncnc(C)c3c2)o1 [Compound 25, 1-methyl-3-(5-(5-methylfuran-2-yl)-6-(4-methylquinazolin-6-yl)-1,2,4-triazin-3-yl)-1-(pyridin-2-yl-methyl)urea] |  | 45.7 | 178 | 3.9 |
| Cc1ncnc2ccc(-c3ccc(NC(=O)N(C)Cc4ccccn4)nc3-c3ccc(F)cc3)cc12 [Compound 29, 3-(6-(4-fluorophenyl)-5-(4-methylquinazolin-6-yl)pyridin-2-yl)-1-methyl-1-(pyridine-2-methyl)urea] |  | 425.9 | 5030 | 11.8 |
